How the values were obtained:
GABA production = experiment: Synthesis of GABA in vitro (conversion of glutamate to GABA in culture); assay type: cell-based, Lactiplantibacillus plantarum; conditions: cultures grown under anaerobic conditions at ~37° C. for 48 hours; data not shown
Protocol: The Lactiplantibacillus plantarum Lp815 strain was assessed for its ability to convert glutamate to GABA in vitro. Overnight, stationary phase cultures (16-18 h) of L. plantarum Lp815 were used to inoculate 3 mL of fresh media at an optical density of ~0.05 as measured at 600 nm by a spectrophotometer (OD600). Multiple media types can be used, including rich media (e.g., MRS broth) or minimal media supplemented with the necessary components to support growth. The media can further be supplemented with L (+)-glutamic acid or a salt thereof and/or piperazine-N,N′-bis(2-ethanesulfonic acid) (PIPES). Cultures were grown under anerobic conditions at ~37° C. for 48 hours.

healthy adults = experiment: Urine GABA and 5-HIAA levels in human participants after Lp815 supplementation; assay type: in vivo; conditions: week 4, 1×10^9 cfu/day for 4 weeks
Protocol: The Lactiplantibacillus plantarum Lp815 strain was assessed for its ability to increase GABA levels in human participants. Eight healthy adults (5 female, 3 male) provided a urine sample at baseline (T=0). Urine was analyzed for GABA and 5-HIAA levels using the Neurotransmitter Basic Panel (available from Life Extension/National Diagnostics, Inc.). 5-HIAA is a metabolite of serotonin and indicative of serotonin levels in a subject. Participants with GABA levels in the high range at baseline ([…] GABA) were excluded from the study. Participants proceeded to take the Lp815 probiotic at 1×10^9 cfu/day for 4 weeks. Participants refrained from beginning any new treatments, using antibiotics, or taking any additional probiotic products.
After 4 weeks of supplementation, a second urine sample was collected and GABA levels measured. […] Additionally, levels of 5-HIAA were increased by approximately 10% at week 4 relative to baseline (FIG. 1B).

[1] = tested on: Participants with self-reported mild to moderate anxiety; experiment: Double blind, randomized, placebo-controlled study of GAD-7 generalized anxiety scores; assay type: in vivo, human; conditions: 1×10^9 CFU or 5×10^9 CFU daily; weeks 2, 4, and 6; FIG. 2
Protocol: A double blind, randomized, placebo-controlled study was conducted to assess the impact of Lactiplantibacillus plantarum Lp815 on generalized anxiety scores. Participants with self-reported mild to moderate anxiety as measured by the GAD-7 questionnaire were enrolled in a six week trial. Participants with severe anxiety were excluded.
The GAD-7 questionnaire is a self-reported questionnaire that assesses anxiety levels based on 7 questions as measured over the last two weeks: 1) feeling nervous, anxious, or on edge, 2) not being able to stop or control worrying, 3) worrying too much about different things, 4) trouble relaxing, 5) being so restless that it is hard to sit still, 6) becoming easily annoyed or irritable, and 7) feeling afraid as if something awful might happen. For each question, a score of 0 (not at all), 1 (several days), 2 (more than half the days), or 3 (nearly every day) is assigned. The total score is a sum across the seven questions. A total score of 0-4 indicates minimal anxiety, 5-9 indicates mild anxiety, 10-14 indicates moderate anxiety, and 15-21 indicates severe anxiety.
Participants were divided into either placebo, 1×10^9 CFU daily of Lp815 or 5×10^9 CFU daily of Lp815. The GAD-7 questionnaire was administered at baseline, 2 weeks, 4 weeks and 6 weeks following supplementation.

## Lactiplantibacillus plantarum Lp815
GABA production
  GABA production: increase in GABA production
Healthy adults; FIG. 1A
  GABA levels increase relative to baseline: approximately 20%
Healthy adults; FIG. 1B
  levels of 5-HIAA increase relative to baseline: approximately 10%
[1]
  decrease in GAD-7 scores relative to baseline: 10-15 points
